Paper PMC11005471 (Frontiers in Veterinary Science, 2024)
Read-outs that look alike come from different tables or passages of the source.

Legend:
Bbp [1] = assay type: biochemical, Brucella suis
Bbp [2] = assay type: biochemical, Brucella suis; remark: listed apart in the source

Compound	Km (Bbp [1]) [µM]	Km (Bbp [2]) [µM]
O=C(COP(=O)(O)O)[C@@H](O)[C@H](O)[C@H](O)[C@H](O)COP(=O)(O)O [S1,7bP]	13.9 ± 3.2	–
O=P(O)(O)OC[C@H]1OC(O)(COP(=O)(O)O)[C@@H](O)[C@@H]1O (some centres unmarked) [F1,6bP]	–	53.2 ± 6.3
